In PubChem BioAssay AID256 (DTP/NCI, 2004):
Values joined by “and” are separate entries in the source; they are usually repeats but may differ in a detail not shown here. Identical values can stand only once. Inconclusive results and toxic doses are left out.

Test system: CD2F1 mice, L1210 leukemia ip, survival T/C
Test: NCI In Vivo Anticancer Drug Screen. Data for tumor model L1210 Leukemia (intraperitoneal) in CD2F1 (CDF1) mice
Details: higher = longer survival
In short: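 Implant tumor; dose compound or vehicle; measure endpoint in both groups; report treated divided by control.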

[1] = endpoint: mean survival time, dose: 50.0 mg/kg/injection, schedule: Q01DX009 (ip), vehicle: saline with Tween-80
[2] = endpoint: mean survival time, dose: 100.0 mg/kg/injection, schedule: Q01DX009 (ip), vehicle: saline with Tween-80
[3] = endpoint: mean survival time, dose: 100.0 mg/kg/injection, schedule: Q04DX003 (ip), vehicle: saline with Tween-80
[4] = endpoint: mean survival time, dose: 200.0 mg/kg/injection, schedule: Q01DX009 (ip), vehicle: saline with Tween-80
[5] = endpoint: mean survival time, dose: 200.0 mg/kg/injection, schedule: Q04DX003 (ip), vehicle: saline with Tween-80
[6] = endpoint: mean survival time, dose: 100.0 mg/kg/injection, schedule: Q01DX001 (ip), vehicle: saline
[7] = endpoint: mean survival time, dose: 200.0 mg/kg/injection, schedule: Q01DX001 (ip), vehicle: saline
[8] = endpoint: mean survival time, dose: 50.0 mg/kg/injection, schedule: Q01DX009 (ip), vehicle: saline
[9] = endpoint: mean survival time, dose: 400.0 mg/kg/injection, schedule: Q01DX009 (ip), vehicle: saline with Tween-80
[10] = endpoint: mean survival time, dose: 400.0 mg/kg/injection, schedule: Q04DX003 (ip), vehicle: saline with Tween-80
[11] = endpoint: mean survival time, dose: 100.0 mg/kg/injection, schedule: Q04DX003 (ip), vehicle: saline
[12] = endpoint: mean survival time, dose: 200.0 mg/kg/injection, schedule: Q04DX003 (ip), vehicle: saline
[13] = endpoint: mean survival time, dose: 400.0 mg/kg/injection, schedule: Q04DX003 (ip), vehicle: saline
[14] = endpoint: mean survival time, dose: 100.0 mg/kg/injection, schedule: Q04DX002 (ip), vehicle: saline
[15] = endpoint: mean survival time, dose: 200.0 mg/kg/injection, schedule: Q04DX002 (ip), vehicle: saline
[16] = endpoint: mean survival time, dose: 100.0 mg/kg/injection, schedule: Q04DX002 (ip), vehicle: saline with Tween-80
[17] = endpoint: mean survival time, dose: 200.0 mg/kg/injection, schedule: Q04DX002 (ip), vehicle: saline with Tween-80
[18] = endpoint: mean survival time, dose: 400.0 mg/kg/injection, schedule: Q04DX002 (ip), vehicle: saline with Tween-80

Structure (SMILES): CCc1c(C)c(C)cc(S(=O)(=O)O)c1C
- T/C [1]: 104 % of control
- T/C [2]: 93 % of control
- T/C [3]: 101 % of control
- T/C [4]: 89 % of control
- T/C [5]: 87 % of control

Structure (SMILES): COC1OC(CO)C(O)C1n1cnc2c(=O)[nH]c(N)nc21 (stereo unspecified)
- T/C (endpoint: mean survival time, dose: 50.0 mg/kg/injection, schedule: Q01DX001 (ip), vehicle: saline with Tween-80): 97 % of control
- T/C (endpoint: mean survival time, dose: 100.0 mg/kg/injection, schedule: Q01DX001 (ip), vehicle: saline with Tween-80): 95 % of control
- T/C (endpoint: mean survival time, dose: 200.0 mg/kg/injection, schedule: Q01DX001 (ip), vehicle: saline with Tween-80): 97 % of control

Structure (SMILES): COc1ccc2ccccc2c1C1/C(=N/O)CCc2ccccc21 (stereo unspecified)
- T/C (endpoint: mean survival time, dose: 12.5 mg/kg/injection, schedule: Q01DX009 (ip), vehicle: other): 98 % of control
- T/C (endpoint: mean survival time, dose: 25.0 mg/kg/injection, schedule: Q01DX009 (ip), vehicle: other): 94 % of control
- T/C (endpoint: mean survival time, dose: 50.0 mg/kg/injection, schedule: Q01DX009 (ip), vehicle: other): 98 % of control
- T/C (endpoint: mean survival time, dose: 100.0 mg/kg/injection, schedule: Q01DX009 (ip), vehicle: other): 98 % of control
- T/C (endpoint: mean survival time, dose: 200.0 mg/kg/injection, schedule: Q01DX009 (ip), vehicle: other): 96 % of control

Structure (SMILES): CC(Cc1ccc2c(c1)OCO2)NCC(O)c1ccc(O)c(O)c1 (stereo unspecified)
- T/C [6]: 103 % of control
- T/C [7]: 109 % of control

Structure (SMILES): COc1cc(NCC(C)(O)CN2CCCC(C)C2C)c2ncccc2c1 (stereo unspecified)
- T/C (endpoint: mean survival time, dose: 3.12 mg/kg/injection, schedule: Q01DX009 (ip), vehicle: saline): 101 % of control
- T/C (endpoint: mean survival time, dose: 6.25 mg/kg/injection, schedule: Q01DX009 (ip), vehicle: saline): 101 % of control
- T/C (endpoint: mean survival time, dose: 12.5 mg/kg/injection, schedule: Q01DX009 (ip), vehicle: saline): 101 % of control
- T/C (endpoint: mean survival time, dose: 25.0 mg/kg/injection, schedule: Q01DX009 (ip), vehicle: saline): 103 % of control
- T/C [8]: 102 % of control

Structure (SMILES): COc1cc(CNCc2ccccc2)ccc1O
- T/C (endpoint: mean survival time, dose: 75.0 mg/kg/injection, schedule: Q01DX001 (ip), vehicle: other): 90 % of control
- T/C (endpoint: mean survival time, dose: 150.0 mg/kg/injection, schedule: Q01DX001 (ip), vehicle: other): 93 % of control
- T/C (endpoint: mean survival time, dose: 300.0 mg/kg/injection, schedule: Q01DX001 (ip), vehicle: other): 95 % of control

Structure (SMILES): CC(=O)Oc1ccc(N2C(=O)C=CC2=O)cc1 (tested in a mixture with another compound)
- T/C [2]: 95 % of control
- T/C [3]: 91 % of control
- T/C [4]: 91 % of control
- T/C [5]: 90 % of control
- T/C [9]: 91 % of control
- T/C [10]: 87 % of control

Structure (SMILES): Nc1ccccc1O
- T/C [2]: 114 % of control
- T/C [11]: 100 % of control
- T/C [4]: 114 % of control
- T/C [12]: 96 % of control
- T/C [13]: 119 % of control

Structure (SMILES): CC1(C)SC2C(NC(=O)Cc3ccccc3)C(=O)N2C1C(=O)O (stereo unspecified)
- T/C (endpoint: mean survival time, dose: 25.0 mg/kg/injection, schedule: Q01DX001 (ip), vehicle: saline): 97 % of control
- T/C (endpoint: mean survival time, dose: 25.0 mg/kg/injection, schedule: Q04DX002 (ip), vehicle: saline): 97 % of control
- T/C (endpoint: mean survival time, dose: 50.0 mg/kg/injection, schedule: Q01DX001 (ip), vehicle: saline): 100 % of control
- T/C (endpoint: mean survival time, dose: 50.0 mg/kg/injection, schedule: Q04DX002 (ip), vehicle: saline): 100 % of control
- T/C [6]: 100 % of control and 102 % of control
- T/C [14]: 97 % of control and 100 % of control
- T/C (endpoint: mean survival time, dose: 200.0 mg/kg/injection, schedule: Q01DX001 (ip), vehicle: carboxymethylcellulose (CMC)): 104 % of control
- T/C [7]: 97 % of control and 100 % of control
- T/C [15]: 102 % of control and 104 % of control
- T/C (endpoint: mean survival time, dose: 400.0 mg/kg/injection, schedule: Q01DX001 (ip), vehicle: carboxymethylcellulose (CMC)): 100 % of control

Structure (SMILES): Cc1nc2c(=O)n(C3OC(CO)C(O)C3O)cnc2o1 (stereo unspecified)
- T/C (endpoint: mean survival time, dose: 100.0 mg/kg/injection, schedule: Q01DX005 (ip), vehicle: saline): 103 % of control

Structure (SMILES): Clc1nc2ccccc2[nH]1
- T/C [11]: 98 % of control
- T/C [12]: 100 % of control
- T/C [13]: 90 % of control

Structure (SMILES): OC1CC2C3C4C1C1C2C3C41 (stereo unspecified)
- T/C [2]: 104 % of control
- T/C [3]: 107 % of control
- T/C [4]: 95 % of control
- T/C [5]: 98 % of control
- T/C [9]: 95 % of control
- T/C [10]: 97 % of control

Structure (SMILES): COc1cc(Cl)ccc1NC(=O)Nc1ccc(CCO)cc1
- T/C [1]: 93 % of control
- T/C [2]: 93 % of control

Structure (SMILES): N=C(N)SCc1cccc([N+](=O)[O-])c1
- T/C [16]: 97 % of control

Structure (SMILES): Cc1cccc(CC(F)(F)F)c1
- T/C [3]: 102 % of control
- T/C [5]: 100 % of control
- T/C [10]: 89 % of control

Structure (SMILES): C=CCc1ccccc1OC
- T/C [11]: 95 % of control
- T/C [12]: 104 % of control
- T/C [13]: 95 % of control

Structure (SMILES): Nc1ncnc2c1ncn2CCNC(=S)Nc1ccccc1
- T/C (endpoint: mean survival time, dose: 6.25 mg/kg/injection, schedule: Q01DX005 (ip), vehicle: other): 88 % of control
- T/C (endpoint: mean survival time, dose: 12.5 mg/kg/injection, schedule: Q01DX005 (ip), vehicle: other): 92 % of control
- T/C (endpoint: mean survival time, dose: 25.0 mg/kg/injection, schedule: Q01DX005 (ip), vehicle: other): 88 % of control
- T/C (endpoint: mean survival time, dose: 50.0 mg/kg/injection, schedule: Q01DX005 (ip), vehicle: other): 92 % of control
- T/C (endpoint: mean survival time, dose: 100.0 mg/kg/injection, schedule: Q01DX005 (ip), vehicle: other): 92 % of control

Structure (SMILES): Cc1ccccc1N
- T/C [2]: 102 % of control
- T/C [4]: 107 % of control

Structure (SMILES): CCCCCCCCCCCCCCCCCC[Se]CCCCCCCCCCCCCCCCCC
- T/C [2]: 89 % of control
- T/C [4]: 91 % of control
- T/C [9]: 95 % of control

Structure (SMILES): CC[C@@]1(O)C(=O)OCc2c1cc1n(c2=O)Cc2cc3c(CN(C)C)c(O)ccc3nc2-1
- T/C (endpoint: median survival time, dose: 5.0 mg/kg/injection, schedule: Q04DX002 (ip), vehicle: water): 119 % of control
- T/C (endpoint: median survival time, dose: 20.0 mg/kg/injection, schedule: Q04DX002 (ip), vehicle: water): 183 % of control
- T/C (endpoint: median survival time, dose: 40.0 mg/kg/injection, schedule: Q04DX002 (ip), vehicle: water): 264 % of control

Structure (SMILES): FC(F)(F)C1(F)N(Cc2ccccc2)N=NC1(F)F (stereo unspecified)
- T/C (endpoint: mean survival time, dose: 75.0 mg/kg/injection, schedule: Q01DX001 (ip), vehicle: saline): 96 % of control
- T/C (endpoint: mean survival time, dose: 150.0 mg/kg/injection, schedule: Q01DX001 (ip), vehicle: saline): 98 % of control
- T/C (endpoint: mean survival time, dose: 300.0 mg/kg/injection, schedule: Q01DX001 (ip), vehicle: saline): 96 % of control

Structure (SMILES): Cc1cc(=O)[nH]c(-c2ccccc2)c1C(=O)O
- T/C [16]: 95 % of control
- T/C [17]: 95 % of control
- T/C [18]: 95 % of control

Structure (SMILES): COc1cc(/C=N\NC(=O)CC#N)cc(OC)c1OC
- T/C [3]: 94 % of control
- T/C [5]: 98 % of control

Structure (SMILES): CCOC(=O)c1c(C)c2c(n1C)CC/C(=C\N1CCN(c3ccccc3)CC1)C2=O
- T/C [16]: 93 % of control
- T/C [17]: 89 % of control
- T/C [18]: 86 % of control

Structure (SMILES): [O-][n+]1cccc(CCc2ccc[n+]([O-])c2)c1
- T/C [8]: 100 % of control
- T/C (endpoint: mean survival time, dose: 100.0 mg/kg/injection, schedule: Q01DX009 (ip), vehicle: saline): 104 % of control
- T/C (endpoint: mean survival time, dose: 200.0 mg/kg/injection, schedule: Q01DX009 (ip), vehicle: saline): 100 % of control

Structure (SMILES): Cc1ccc2c(c1)C(=O)/C(=C/c1ccccn1)CCO2
- T/C [16]: 92 % of control
- T/C [17]: 88 % of control
- T/C [18]: 92 % of control

Structure (SMILES): Cc1ccc(C)c(C(=O)c2ccccc2C(N)=O)c1
- T/C [1]: 94 % of control
- T/C [2]: 92 % of control
- T/C [4]: 88 % of control

Structure (SMILES): CCN1C2CCC1CC(O)C2 (stereo unspecified)
- T/C [14]: 94 % of control
- T/C [15]: 94 % of control
- T/C (endpoint: mean survival time, dose: 400.0 mg/kg/injection, schedule: Q04DX002 (ip), vehicle: saline): 105 % of control

Structure (SMILES): NC(=O)c1cn(C2OC(CO)CC2O)c2ncnc(N)c12 (stereo unspecified)
- T/C (endpoint: mean survival time, dose: 0.13 mg/kg/injection, schedule: Q01DX009 (ip), vehicle: water): 90 % of control
- T/C (endpoint: mean survival time, dose: 0.25 mg/kg/injection, schedule: Q01DX009 (ip), vehicle: water): 98 % of control
- T/C (endpoint: mean survival time, dose: 0.5 mg/kg/injection, schedule: Q01DX009 (ip), vehicle: water): 96 % of control
- T/C (endpoint: mean survival time, dose: 1.0 mg/kg/injection, schedule: Q01DX009 (ip), vehicle: water): 102 % of control
- T/C (endpoint: mean survival time, dose: 2.0 mg/kg/injection, schedule: Q01DX009 (ip), vehicle: water): 113 % of control
- T/C (endpoint: mean survival time, dose: 8.0 mg/kg/injection, schedule: Q01DX009 (ip), vehicle: water): 110 % of control
- T/C (endpoint: mean survival time, dose: 32.0 mg/kg/injection, schedule: Q01DX009 (ip), vehicle: water): 122 % of control
